Measured values taken from US9896418B2, “Aryl ethers and uses thereof” (Peloton Therapeutics, Inc., priority 2013, dated 2018).

Tests used:
786-O-Hif-Luc cells = experiment: Luciferase Assay; format: cell-based; conditions: about 24 hours, read-out: Mean Luciferease EC50
Method: A pool of infected cells were then selected against 2 μg/mL of puromycin (P8833, Sigma) for 10 days followed by limited dilution to select single clones.
Each concentration was tested in triplicate. After about 24 hours, luciferase activity was determined using ONE-Glo Luciferase Assay Reagent (E6110, Promega) following the manufacturer's recommended procedure. EC50 were calculated by using Dotmatics software.

786-O cells = experiment: VEGF ELISA Assay; format: cell-based; conditions: 786-O cells
Method: Each concentration had duplicated wells. About 20 hours later, medium was removed by suction and each well was supplied with 180 μL of growth medium. About 20 μl freshly-made 10× compound stocks were added to each well. […] The EC50 was calculated by GraphPad Prism using the dose-response-inhibition (four parameter) equation. The cell seeded plate was then subjected to CellTiter-Glo luminescence cell viability assay (Promega) by adding 50 μL of Celltiter Glo reagent into each well and shaking the plate for 8 minutes at 550 rpm (Thermomixer R, Eppendorf) then read luminescence signal in plate reader (3 second delay, 0.5 second/well integration time, Synergy 2 multi Detection Microplate reader) immediately.

[1] = test system: HIF-2α HIS TAG-PASB Domain; experiment: HIF-2α Scintillation Proximity Assay (SPA); format: binding
Method: The percent inhibition was determined and IC50 values were calculated using the Dotmatics system based on the following equation: % inhibition=[(high control−sample)/(high control−low control)]×100.

human VEGFA [2] = experiment: In vivo PK/PD study, plasma human VEGFA by ELISA; parameters: species or system SCID/Biege mice; conditions: 786-O tumor-bearing mice; 10, 30 or 100 mg/kg; FIG. 5
[3] = test system: 786-O renal cell carcinoma xenograft; experiment: In vivo efficacy study, 786-O xenograft; parameters: species or system SCID/Biege mice; conditions: for Tumor size Mean ± SEM: after 20 days of dosing
mouse kidney = experiment: In vivo PK/PD study, kidney mRNA levels by qRT-PCR; parameters: species or system SCID/Biege mice; conditions: FIG. 3
Method: About 5×10^6 renal cell carcinoma 786-O tumor cells (ATCC® CRL-1932™, VHL and HIF-1α null cell line) in PBS and Matrigel (1:1 in volume) were injected subcutaneously at the right flanks of SCID/Biege mice at 6-7 weeks of age for xenograft development. When the xenografts reached about 450 mm^3 in size, the tumor bearing mice were randomly divided into 4 groups (n=4). Plasma was collected prior to treatment by retro-orbital bleeding. […] All animals were sacrificed at 12 hours post last dose. Tumor, kidney, and plasma were collected from each animal. Total RNA was extracted from the tumors and kidneys. The mRNA levels of HIF-1α, HIF-2α and their respective target genes were determined by qRT-PCR (FIG. 1).

[4] = test system: renal cell carcinoma 786-O xenograft; experiment: tumor size in 786-O xenograft bearing mice, single agent; format: in vivo; conditions: 3, 10, 30 and 100 mg/kg BID for 20 days, FIG. 7
human VEGFA [5] = experiment: plasma human VEGF level of 786-O xenograft bearing mice; format: in vivo; conditions: 10, 30 and 100 mg/kg three times at 12 hour intervals, 12 h post treatment vs prior to treatment, FIG. 5

Q: With `CS(=O)(=NC#N)c1ccc(Oc2cc(F)cc(C#N)c2)c2c1[C@H](O)C(F)(F)[C@@H]2F` (single isomer, unassigned) [Example 317] as the compound, how does the EC50 (786-O-Hif-Luc cells) read?
A: Its EC50 is 12 nM.

Q: What about the EC50 (786-O cells) of the same compound?
A: Its EC50 is 14 nM.

Q: And the IC50 [1]?
A: Its IC50 is less than 5 nM.

Q: What does the source list for `N#Cc1cc(F)cc(Oc2ccc(S(=O)(=O)C(F)F)c3c2CC(F)(F)[C@H]3O)c1` [Compound 15, 3-[(1S)-7-(difluoromethylsulfonyl)-2,2-difluoro-1-hydroxy-indan-4-yl]oxy-5-fluoro-benzonitrile]?
A: plasma level of human VEGFA (human VEGFA [2]): significant reduction; Tumor size Mean ± SEM ([3]; 3 mg/kg BID): 136.29 ± 15.77 mm^3; Tumor size Mean ± SEM ([3]; 10 mg/kg BID): 45.36 ± 2.22 mm^3; Tumor size Mean ± SEM ([3]; 30 mg/kg BID): 35.63 ± 2.26 mm^3; Tumor size Mean ± SEM ([3]; 100 mg/kg BID): 37.11 ± .6 mm^3; Tumor size change vs vehicle ([3]; 3, 10, 30 and 100 mg/kg BID, 20 days, t-Test): statistically significant reduction of tumor size; Kidney EPO mRNA level (mouse kidney): reduced; Kidney PGK1 mRNA level (mouse kidney): remained unchanged; tumor size [4]: tumor size reduction and regression; plasma level of human VEGFA (human VEGFA [5]): reduced
